Measured values from patent publication US20030054348A1, “Methods of identifying the activity of gene products” (priority 2000, published 2003).

System: 5′ UTR of HCV mRNA
Test: Phage panning and phage Elisa on biotinylated RNA target
Type: binding
Details: phage clones; positive if A405 >2-fold over background
Description: Surrogate peptides were obtained by panning a portion of the 5′ UTR of HCV mRNA using both the 20 mer and 40 mer random libraries. All solutions and surfaces were pretreated with DEPC or RNaseZap (Ambion, Inc.), respectively, to eliminate RNase contamination that may compromise the integrity of the RNA. Biotinylated—RNA target was diluted to 1 mg/ml in binding buffer (PBS containing 1 mM MgCl2), denatured at 65° C. for 5 min and reannealed by slow cooling to room temperature to allow for appropriate refolding. The synthetic biotinylated-RNA target had the following sequence, 5′-biotin′AA UUGCCAGGACGACCGGGUCCUUUCUUGGAU CM CCC GCU CM UGC CUG GAG AUU-3′. Reannealed RNAs were stored in small aliquots (10-25 μl/tube) at −20° C. Microtiter wells were treated with RNaseZap (Ambion, Inc.) before use. One hundred microliters of RNA solution diluted to 2.5 ng/μl was added to an appropriate number of wells in a 96-well microtiter plate precoated with Streptavidin (Pierce) and incubated for 1 hr at room temperature. Unbound streptavidin was then blocked with 50 μl of 2 mM biotin at room temperature for 1 hr. Four wells were used for each round of panning and 100 μl phage was added to each well. Pahge were precipitated with RNase-free 6% PEG 8000+0.3 M NaCl, washed with the same solution once and resuspended in RNase-free PBS+1 mM MgCl2+Superasin (RNase inhibitor from Ambion, Inc.). For the first round, the input phage titer was 1×10^13 cfu/ml. For rounds 2 and 3, the input phage titer was approximately 10^11 cfu/ml. Phage were allowed to bind for two to three hours at room temperature. The wells were then quickly washed 13 times with 400 μl/well of PBS. Bound phage were eluted by incubation with 150 μl/well of 50 mM glycine-HCl, pH 2.2+0.1% BSA for 5 min. The resulting solution was then neutralized with Tris-HCl, pH 8.0. Log phase TG1 cells were infected with the eluted phage by incubation at 37° C. for 1 hr. Helper phage (M13KO7) was then added (multiplicity of infection(MOI)=15) and cells incubated in the presence of 50 μg/ml ampicillin and 2% glucose for 1 hr at 37° C. with shaking at 250 rpm. Following infection, cells were pelleted, resuspended in the initial culture volume of 2×YT containing 50 μg/ml ampicillin and 50 μg/ml Kanamycin and grown overnight at 37° C. with shaking at 225 rpm. Cells from the overnight culture were pelleted and supernatant containing phage was recovered. Phage was precipitated with 6% PEG 8000, 300 mM NaCl and chilled on ice for 1 hr. […]
For Elisa analysis of individual clones, colonies were picked and phage prepared as described above using helper phage, M13KO7. […] Plates were analyzed at 405 nm using a SpectraMax 340 plate reader (Molecular Devices) and SoftMax Pro software. […]

Substance	Binding to HCV mRNA target
TSGESSGDRTRRVLTSSSARTILPN [HCV-NG-D9]	binders
FTTPRHLSGRTVQMMRDSTS [HCV-3-C3]	binders
LLVTGQFP--SQLLLGGAVCGP--STPRLRTGLCRLSGT (LLVTGQFPSQLLLGGAVCGPSTPRLRTGLCRLSGT) [HCV-3-F5]	binders
RRTCGDPAAMLERLSCRAGDYRGASHTGRLLNLRGMHQYP [HCV-3-H8]	binders
